Series [1] deals with T1, Peroxisome proliferator-activated receptor alpha (Homo sapiens) (UniProt Q07869).
T1 sequence (whole entry): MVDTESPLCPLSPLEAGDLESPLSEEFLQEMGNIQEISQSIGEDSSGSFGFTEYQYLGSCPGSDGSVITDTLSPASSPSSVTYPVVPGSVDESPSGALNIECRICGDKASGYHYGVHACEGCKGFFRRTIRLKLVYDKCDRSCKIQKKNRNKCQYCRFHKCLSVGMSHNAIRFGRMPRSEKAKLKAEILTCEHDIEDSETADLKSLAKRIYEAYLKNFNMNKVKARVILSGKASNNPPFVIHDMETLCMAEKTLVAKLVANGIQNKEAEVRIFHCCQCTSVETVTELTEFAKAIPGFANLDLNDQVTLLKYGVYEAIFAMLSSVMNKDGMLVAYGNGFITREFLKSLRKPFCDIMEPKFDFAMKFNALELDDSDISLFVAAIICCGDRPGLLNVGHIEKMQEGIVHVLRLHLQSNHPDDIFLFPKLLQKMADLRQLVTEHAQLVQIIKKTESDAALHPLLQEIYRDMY
The series is described as follows: Partial agonist activity at human PPARalpha expressed in CHO cells co-transfected with Gal4-responsive luciferase reporter plasmid after 24 hrs by transactivation assay relative to fenofibric acid. The arrangement: concentration or dose not given beside the values. It is filed as functional, cell-based. (In general: In a reporter assay the amount or activity of a reporter protein is the signal.)

Series [2] addresses T2, Peroxisome proliferator-activated receptor alpha (Homo sapiens, UniProt Q07869).
T2 sequence (Q07869 whole entry): T1 sequence (whole entry)
The series is described as follows: Partial agonist activity at human PPARalpha expressed in CHO cells co-transfected with Gal4-responsive luciferase reporter plasmid after 24 hrs by transactivation assay. It is filed as functional, cell-based.

In series [3] the target is T3, Peroxisome proliferator-activated receptor gamma (Homo sapiens, UniProt P37231).
T3 sequence (P37231 whole entry): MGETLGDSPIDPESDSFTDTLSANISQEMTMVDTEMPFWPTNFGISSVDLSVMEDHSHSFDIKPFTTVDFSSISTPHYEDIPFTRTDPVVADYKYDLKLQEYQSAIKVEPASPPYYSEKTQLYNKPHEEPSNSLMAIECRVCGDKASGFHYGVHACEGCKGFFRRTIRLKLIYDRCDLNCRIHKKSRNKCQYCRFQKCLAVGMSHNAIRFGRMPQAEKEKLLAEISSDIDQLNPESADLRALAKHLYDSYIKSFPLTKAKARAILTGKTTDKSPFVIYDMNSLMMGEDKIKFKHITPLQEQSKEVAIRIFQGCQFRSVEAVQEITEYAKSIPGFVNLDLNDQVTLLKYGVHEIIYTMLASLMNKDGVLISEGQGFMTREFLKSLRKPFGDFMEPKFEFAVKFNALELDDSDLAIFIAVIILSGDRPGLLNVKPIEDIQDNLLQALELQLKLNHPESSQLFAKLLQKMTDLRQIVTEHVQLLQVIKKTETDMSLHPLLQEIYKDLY
The series is described as follows: Partial agonist activity at human PPARgamma expressed in CHO cells co-transfected with Gal4-responsive luciferase reporter plasmid after 24 hrs by transactivation assay. It is filed as functional, cell-based.

Series [4] has as its system Mus musculus. The series is described as follows: Toxicity in db/db mouse assessed as body weight gain at 30 mg/kg/day, po administered daily for 14 days relative to control. The arrangement: route oral. It is filed as organism-based. The conditions noted are these: in vivo, 336 h.
The subject of series [5] is Mus musculus. The series is described as follows: Antidiabetic effect in db/db mouse assessed as reduction in plasma triglyceride level at 30 mg/kg/day, po administered daily for 14 days. It is filed as functional. The conditions noted are these: 336 h.
Series [6] concerns Mus musculus. The series is described as follows: Antidiabetic effect in db/db mouse assessed as reduction in plasma glucose level at 30 mg/kg/day, po administered daily for 14 days. It is filed as functional. Conditions: 336 h.
Series [7] relates to Mus musculus. The series is described as follows: Antidiabetic effect in db/db mouse assessed as increase in HDL cholesterol level at 30 mg/kg/day, po administered daily for 14 days. Conditions: 336 h. It is filed as functional.
Series [8] is described as follows: Selectivity ratio of EC50 for mouse PPARalpha to EC50 for human PPARgamma.
Series [9] addresses T4, Peroxisome proliferator-activated receptor alpha (Mus musculus) (UniProt P23204).
T4 sequence (whole entry): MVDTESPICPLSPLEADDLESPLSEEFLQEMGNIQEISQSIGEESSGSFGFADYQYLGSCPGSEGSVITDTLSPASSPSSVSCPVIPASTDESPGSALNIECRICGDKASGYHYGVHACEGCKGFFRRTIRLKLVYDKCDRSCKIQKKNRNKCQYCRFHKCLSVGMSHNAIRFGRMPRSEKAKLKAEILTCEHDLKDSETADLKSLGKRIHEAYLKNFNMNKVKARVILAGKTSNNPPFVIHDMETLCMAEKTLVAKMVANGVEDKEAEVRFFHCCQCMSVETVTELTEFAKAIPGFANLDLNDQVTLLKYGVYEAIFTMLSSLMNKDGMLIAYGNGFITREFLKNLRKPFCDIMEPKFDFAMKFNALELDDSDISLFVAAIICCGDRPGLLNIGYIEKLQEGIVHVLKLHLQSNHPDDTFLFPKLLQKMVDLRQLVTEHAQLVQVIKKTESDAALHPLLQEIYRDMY
The series is described as follows: Partial agonist activity at mouse PPARalpha expressed in CHO cells co-transfected with Gal4-responsive luciferase reporter plasmid after 24 hrs by transactivation assay relative to fenofibric acid. It is filed as functional, cell-based.

The species named for series [10] is Homo sapiens. The series is described as follows: Selectivity ratio of EC50 for human PPARalpha to EC50 for human PPARgamma.
Series [11] is described as follows: Volume of distribution in rat at 1 mg/kg, iv. The arrangement: dose 1 mg/kg, route intravenous. The conditions noted are these: in vivo. It is filed as ADME, organism-based.
A short description of series [12]: Oral bioavailability in rat at 10 mg/kg. Conditions: in vivo. It is filed as ADME, organism-based.
Series [13] is described as follows: Cmax in rat at 10 mg/kg, po. It is filed as ADME, organism-based. Conditions: in vivo. The arrangement: dose 10 mg/kg, route oral.
The nature of series [14]: Half life in rat at 1 mg/kg, iv. Also on record: dose 1 mg/kg, route intravenous. Conditions: in vivo. It is filed as ADME, organism-based.
The nature of series [15]: Clearance in rat at 1 mg/kg, iv. It is filed as ADME, organism-based. The arrangement: dose 1 mg/kg, route intravenous. The conditions noted are these: in vivo.
Series [16] deals with Mus musculus. The series is described as follows: Toxicity in db/db mouse assessed as effect on food intake at 30 mg/kg/day, po administered daily for 14 days relative to control. It is filed as organism-based. Also on record: route oral. The conditions noted are these: in vivo, 336 h.

The compound `Cc1ccc(C(=O)c2nccn2C/C=C/c2cccc(OC(C)(C)C(=O)O)c2)cc1` gave an Activity in [1] of 56%. Besides, the EC50 (as a rule, the concentration giving half of the maximal effect) in [2] was 0.62 µM; in series [3], 12 µM.

In the case of `Cc1ccc(C(=O)c2nc(C)c(C)n2C/C=C/c2cccc(OC(C)(C)C(=O)O)c2)cc1`, the Activity in series [1] was 60%. The EC50 stood at 3.6 µM in series [2] and 4.8 µM in series [3].

`Cc1ccc(C(=O)c2nc3ccccc3n2/C=C/c2cccc(OC(C)(C)C(=O)O)c2)cc1` [listing 1 of 2 here]: the figures for the EC50 in series [2] and in [3] were 2.4 µM and 0.13 µM, respectively.

With `CCc1ccc(CCOc2ccc(CC3SC(=O)NC3=O)cc2)nc1` (centres undefined) [PIOGLITAZONE], the Activity in series [4] came to 17%. For the same compound, the inhibition in vivo (as a rule, the drop in the measured response relative to a control, in per cent) at 30 mg/kg/day in series [5] was 69%; in series [6] it was 46%; in [7], 10%.

Take `Cc1ccc(C(=O)c2nc3ccccc3n2-c2cccc(OC(C)(C)C(=O)O)c2)cc1`: the EC50 in series [3] worked out at 3.3 µM.

Take `Cc1ccc(C(=O)c2nc3ccccc3n2C/C=C/c2cccc(OC(C)(C)C(=O)O)c2)cc1`: the Activity in series [1] was found to be 42%. In addition, the results for the EC50 in [2] and in [3] were 3.6 µM and 1.7 µM, respectively.

As for `Cc1ccc(C(=O)c2nc3ccccc3n2/C=C/c2cccc(OC(C)(C)C(=O)O)c2)cc1` [listing 2 of 2 here], the results for the Ratio EC50 in [8] and in series [10] were 13 and 18, respectively. Besides, the Activity is 44% in series [1] and 77% in series [9].

On to `Cc1ccc(C(=O)c2nc3c(n2C/C=C/c2cccc(OC(C)(C)C(=O)O)c2)CCCC3)cc1`, for which, in [1], the Activity stood at 60%. The values for the EC50 in series [2] and in series [3] were 3.6 µM and 3 µM, respectively.

Compound `CC(C)(Oc1ccc(C(=O)c2ccc(Cl)cc2)cc1)C(=O)O` displayed an Activity in series [1] of 100%.

For the compound `Cc1ccc(C(=O)c2nc3ccccc3n2C/C=C/c2cccc(OCC(=O)O)c2)cc1`, the EC50 is above 10 µM in series [2] and 4.6 µM in series [3].

Take `Cc1ccc(C(=O)c2nccn2C/C=C/c2cccc(OCC(=O)O)c2)cc1`: the EC50 in [2] and in series [3] was above 10 µM throughout.

Regarding `Cc1ccc(C(=O)c2nc3ccccc3n2/C=C/c2cccc(OC(C)(C)C(=O)[O-])c2)cc1.[Na+]`, in series [11], the Vd (in general, a proportionality between amount in the body and measured concentration, not a real space) was 0.747 L/kg. Moreover, the results for the Activity in series [4] and in series [16] were 11% and “Non-toxic”, respectively. The inhibition in vivo at 30 mg/kg/day in series [5] turned out to be 86%; in series [6], 60%; in series [7], 38%. Also, the bioavailability in series [12] came to 110%. Besides, the concentration in [13] peaked (Cmax) at 4.34 µg/mL. The half-life (as a rule, how long it takes for the measured level to halve) in series [14] stood at 1.45 h. Besides, the clearance (commonly the volume of plasma or blood freed of the substance per unit of time) in [15] worked out at 0.209 L/h/kg.

`Cc1ccc(C(=O)c2nc3ccccc3n2Cc2cccc(OC(C)(C)C(=O)O)c2)cc1`: in series [3], a half-maximal response (EC50) required 6 µM.

Values taken from ChEMBL document CHEMBL1759929, “Synthesis and pharmacological evaluation of novel benzoylazole-based PPAR α/γ activators” (Bioorg Med Chem Lett, 2011).
